{
  "source": "patent US20190275012A9",
  "about": "“SUBSTITUTED THIAZOLO-PYRIDINE COMPOUNDS AS MALT1 INHIBITORS” (Lupin Limited, priority 2016, published 2019)",
  "data": [
    {"tested_on": "NF-kB transcriptional activity in HEK-293-NF-kB-Luc cell line overexpressing MALT1", "assay": "NF-kB reporter assay (luciferase, MALT1 stably overexpressed)", "format": "cell-based", "settings": "Homo sapiens, 24 h, HEK-293-NF-kB-Luc cells stably overexpressing MALT1, 24 h treatment, Bright Glo luminescence; read-out: NF-kB inhibition IC50", "method": "The NF-⇐B reporter assay was performed to screen for MALT1 inhibition mediated reduction in the NF-⇐B transcriptional activity. For this purpose, MALT1 was stably overexpressed in HEK-293—NF-⇐B-Luc cell line. Cells were seeded in poly-D-lysine coated 96-well plates in a culture medium containing the selection markers (DMEM+10% FBS+50 |g/ml Hygromycin+500 |g/ml Geniticin) and allowed to adhere overnight. On the following day, cells were treated with various concentrations of test compounds for 24 h. After 24 h of treatment with test compounds, media was removed from each well and Bright Glo™ (Promega, USA) substrate was added and incubated for further 10 min at ambient temperature. Luminescence was measured for detection of NF-⇐B reporter activity. RLUs (Relative Luminescence Units) were directly proportional to the NF-⇐B activity. % inhibition of NF-⇐B activity was calculated relative to the samples containing media with 0.1% DMSO alone as per the following formula", "units": {"IC50": "nM"}, "values": [
      {"smiles": "COc1ncc(NC(=O)Nc2cnc3sc(C)nc3c2C2CC2)cc1C#N", "note": "[Compound 62, 1-(5-Cyano-6-methoxypyridin-3-yl)-3-(7-cyclopropyl-2-methylthiazolo[5,4-b]pyridin-6-yl)urea]", "IC50": "101 to 500"},
      {"smiles": "Cc1nc2c(C3CC3)c(NC(=O)Nc3ccc(-c4nnco4)c(Cl)c3)cnc2s1", "note": "[Compound 63, 1-(3-Chloro-4-(1,3,4-oxadiazol-2-yl)phenyl)-3-(7-cyclopropyl-2-methylthiazolo[5,4-b]pyridin-6-yl)urea]", "IC50": "101 to 500"},
      {"smiles": "COCC1(c2c(NC(=O)Nc3ccc(-n4nccn4)c(Cl)c3)cnc3sc(C)nc23)CC1", "note": "[Compound 64, 1-(3-Chloro-4-(2H-1,2,3-triazol-2-yl)phenyl)-3-(7-(1-(methoxymethyl)cyclopropyl)-2-methylthiazolo[5,4-b]pyridin-6-yl)urea]", "IC50": "101 to 500"},
      {"smiles": "Cc1nc2c(N3CCCOCC3)c(NC(=O)Nc3cnc(-n4nccn4)c(Cl)c3)cnc2s1", "note": "[Compound 67, 1-(5-Chloro-6-(2H-1,2,3-triazol-2-yl)pyridin-3-yl)-3-(2-methyl-7-(1,4-oxazepan-4-yl)thiazolo[5,4-b]pyridin-6-yl)urea]", "IC50": "101 to 500"},
      {"smiles": "COCCN(c1c(NC(=O)Nc2ccc(-n3nccn3)c(Cl)c2)cnc2sc(C)nc12)C1CC1", "note": "[Compound 68, 1-(3-Chloro-4-(2H-1,2,3-triazol-2-yl)phenyl)-3-(7-(cyclopropyl(2-methoxyethyl)amino)-2-methylthiazolo[5,4-b]pyridin-6-yl)urea]", "IC50": "101 to 500"},
      {"smiles": "COc1nc(-n2nccn2)c(Cl)cc1NC(=O)Nc1cnc2sc(C)nc2c1C(OC)C(C)C", "note": "(stereo not drawn) [Compound 81a, 1-(5-Chloro-2-methoxy-6-(2H-1,2,3-triazol-2-yl)pyridin-3-yl)-3-(7-(1-methoxy-2-methylpropyl)-2-methylthiazolo[5,4-b]pyridin-6-yl)urea]", "IC50": "1 to 100"},
      {"smiles": "COC(c1ccccc1)c1c(NC(=O)Nc2ccc(-n3nccn3)c(Cl)c2)cnc2sc(C)nc12", "note": "(stereo not drawn) [Compound 82b, 1-(3-Chloro-4-(2H-1,2,3-triazol-2-yl)phenyl)-3-(7-(methoxy(phenyl)methyl)-2-methylthiazolo[5,4-b]pyridin-6-yl)urea]", "IC50": "101 to 500"},
      {"smiles": "COc1nc(-n2nccn2)c(C(F)(F)F)cc1NC(=O)Nc1cnc2sc(C)nc2c1C(C)OC", "note": "(stereo not drawn) [Compound 88a, 1-(2-Methoxy-6-(2H-1,2,3-triazol-2-yl)-5-(trifluoromethyl)pyridin-3-yl)-3-(7-(1-methoxyethyl)-2-methylthiazolo[5,4-b]pyridin-6-yl)urea]", "IC50": "1 to 100"},
      {"smiles": "Cc1nc2c(N(C)C3CC3)c(NC(=O)Nc3cnc(-n4nccn4)c(C(F)(F)F)c3)cnc2s1", "note": "[Compound 100, 1-(6-(2H-1,2,3-Triazol-2-yl)-5-(trifluoromethyl)pyridin-3-yl)-3-(7-(cyclopropyl(methyl)amino)-2-methylthiazolo[5,4-b]pyridin-6-yl)urea]", "IC50": "1 to 100"},
      {"smiles": "Cc1nc2c(C3(CO)CC3)c(NC(=O)Nc3cnc(-n4nccn4)c(Cl)c3)cnc2s1", "note": "[Compound 105, 1-(5-Chloro-6-(2H-1,2,3-triazol-2-yl)pyridin-3-yl)-3-(7-(1-(hydroxymethyl)cyclopropyl)-2-methylthiazolo[5,4-b]pyridin-6-yl)urea]", "IC50": "1 to 100"},
      {"smiles": "COc1ncc(NC(=O)Nc2cnc3sc(C)nc3c2C2(C)CC2)cc1Cl", "note": "[Compound 117, 1-(5-Chloro-6-methoxypyridin-3-yl)-3-(2-methyl-7-(1-methylcyclopropyl)thiazolo[5,4-b]pyridin-6-yl)urea]", "IC50": "1 to 100"},
      {"smiles": "Cc1ncn(-c2ccc(NC(=O)Nc3cnc4sc(C)nc4c3C3CC3)cc2Cl)n1", "note": "[Compound 173, 1-(3-Chloro-4-(3-methyl-1H-1,2,4-triazol-1-yl)phenyl)-3-(7-cyclopropyl-2-methylthiazolo[5,4-b]pyridin-6-yl)urea]", "IC50": "501 to 1500"},
      {"smiles": "Cc1nc2c(C3CC3)c(NC(=O)Nc3ccc(-n4ncnc4C)c(Cl)c3)cnc2s1", "note": "[Compound 174, 1-(3-Chloro-4-(5-methyl-1H-1,2,4-triazol-1-yl)phenyl)-3-(7-cyclopropyl-2-methylthiazolo[5,4-b]pyridin-6-yl)urea]", "IC50": "501 to 1500"},
      {"smiles": "COc1ncc(NC(=O)Nc2cnc3sc(C)nc3c2C2CC2)cc1Br", "note": "[Compound 175, 1-(5-Bromo-6-methoxypyridin-3-yl)-3-(7-cyclopropyl-2-methylthiazolo[5,4-b]pyridin-6-yl)urea]", "IC50": "501 to 1500"},
      {"smiles": "Cc1nc2c(C3(C)CC3)c(NC(=O)Nc3cnc(-n4nccn4)c(C(F)(F)F)c3)cnc2s1", "note": "[Compound 177, 1-(6-(2H-1,2,3-triazol-2-yl)-5-(trifluoromethyl)pyridin-3-yl)-3-(2-methyl-7-(1-methyleyelopropyl)thiazolo[5,4-b]pyridin-6-yl)urea]", "IC50": "1 to 100"},
      {"smiles": "COc1nc(-n2nccn2)c(Cl)cc1NC(=O)Nc1cnc2sc(C)nc2c1C1(C)CC1", "note": "[Compound 178, 1-(5-Chloro-2-methoxy-6-(2H-1,2,3-triazol-2-yl)pyridin-3-yl)-3-(2-methyl-7-(1-methyleyelopropyl)thiazolo[5,4-b]pyridin-6-yl)urea]", "IC50": "1 to 100"},
      {"smiles": "COc1nc(-n2nccn2)c(Cl)cc1NC(=O)Nc1cnc2sc(C)nc2c1C(C)C", "note": "[Compound 184, 1-(5-Chloro-2-methoxy-6-(2H-1,2,3-triazol-2-yl)pyridin-3-yl)-3-(7-isopropyl-2-methylthiazolo[5,4-b]pyridin-6-yl)urea]", "IC50": "1 to 100"},
      {"smiles": "COc1nc(OC)c(NC(=O)Nc2cnc3sc(C)nc3c2C(C)C)cc1Cl", "note": "[Compound 186, 1-(5-Chloro-2,6-dimethoxypyridin-3-yl)-3-(7-isopropyl-2-methylthiazolo[5,4-b]pyridin-6-yl)urea]", "IC50": "501 to 1500"},
      {"smiles": "Cc1nc2c(C(C)C)c(NC(=O)Nc3ccc(-n4nccn4)c(Cl)c3)cnc2s1", "note": "[Compound 188, 1-(3-Chloro-4-(2H-1,2,3-triazol-2-yl)phenyl)-3-(7-isopropyl-2-methylthiazolo[5,4-b]pyridin-6-yl)urea]", "IC50": "101 to 500"},
      {"smiles": "Cc1nc2c(C(C3CC3)N(C)C)c(NC(=O)Nc3cnc(-n4nccn4)c(Cl)c3)cnc2s1", "note": "(stereo not drawn) [Compound 228b, 1-(5-Chloro-6-(2H-1,2,3-triazol-2-yl)pyridin-3-yl)-3-(7-(cyclopropyl(dimethylamino)methyl)-2-methylthiazolo[5,4-b]pyridin-6-yl)urea]", "IC50": "1 to 100"},
      {"smiles": "CCC(c1c(NC(=O)Nc2cnc(-n3nccn3)c(C(F)(F)F)c2)cnc2sc(C)nc12)N1CC(F)(F)C1", "note": "(stereo not drawn) [Compound 229b, 1-(6-(2H-1,2,3-Triazol-2-yl)-5-(trifluoromethyl)pyridin-3-yl)-3-(7-(1-(3,3-difluoroazetidin-1-yl)propyl)-2-methylthiazolo[5,4-b]pyridin-6-yl)urea]", "IC50": "1 to 100"},
      {"smiles": "Cc1nc2c(C(N(C)C)C(F)(F)F)c(NC(=O)Nc3cnc(-n4nccn4)c(C(F)(F)F)c3)cnc2s1", "note": "(stereo not drawn) [Compound 230b, 1-(6-(2H-1,2,3-triazol-2-yl)-5-(trifluoromethyl)pyridin-3-yl)-3-(7-(1-(dimethylamino)-2,2,2-trifluoroethyl)-2-methylthiazolo[5,4-b]pyridin-6-yl)urea]", "IC50": "1 to 100"},
      {"smiles": "Cc1nc2c(C(N(C)C)C(F)(F)F)c(NC(=O)Nc3cnc(-n4nccn4)c(Cl)c3)cnc2s1", "note": "(stereo not drawn) [Compound 231b, 1-(5-Chloro-6-(2H-1,2,3-triazol-2-yl)pyridin-3-yl)-3-(7-(1-(dimethylamino)-2,2,2-trifluoroethyl)-2-methylthiazolo[5,4-b]pyridin-6-yl)urea]", "IC50": "1 to 100"},
      {"smiles": "CCc1nc2c(C(C)OC)c(NC(=O)Nc3cnc(-n4nccn4)c(C(F)(F)F)c3)cnc2s1", "note": "(stereo not drawn) [Compound 232b, 1-(6-(2H-1,2,3-Triazol-2-yl)-5-(trifluoromethyl)pyridin-3-yl)-3-(2-ethyl-7-(1-methoxyethyl)thiazolo[5,4-b]pyridin-6-yl)urea]", "IC50": "1 to 100"}
    ]}
  ]
}
